Data reported in publication PMC4012456 (Marine Drugs, 2014).
Structures can show the parent of a compound that is named as a salt. Where two headings read alike, the source gives them in different places.

Columns and labels:
murine muscle-type nAChR = target: T1, murine muscle-type nAChR (Mus musculus, UniProt P02716+P04756+P09690+P20782); assay: electrophysiology on muscle nAChR expressed in Xenopus laevis oocytes; format: cell-based; conditions: for inhibition of agonist-evoked current on muscle nAChR (in words): 10 μM acetylcholine; for reversibility of inhibition of muscle nAChR: wash out
T1 construct: expressed in transfected cells; host or cells: Xenopus laevis oocytes injected with plasmid DNA (CMV promoter)

L. stagnalis AChBP = L. stagnalis AChBP (Lymnaea stagnalis, UniProt P58154); parameters: method as in PMID 18338186; conditions: read-out: Kd, affinity to L. stagnalis AChBP; quenching of intrinsic tryptophan fluorescence; cited from earlier work
[1] = 10 μM compound, Xenopus oocytes

T1 sequence (P04756 21-457): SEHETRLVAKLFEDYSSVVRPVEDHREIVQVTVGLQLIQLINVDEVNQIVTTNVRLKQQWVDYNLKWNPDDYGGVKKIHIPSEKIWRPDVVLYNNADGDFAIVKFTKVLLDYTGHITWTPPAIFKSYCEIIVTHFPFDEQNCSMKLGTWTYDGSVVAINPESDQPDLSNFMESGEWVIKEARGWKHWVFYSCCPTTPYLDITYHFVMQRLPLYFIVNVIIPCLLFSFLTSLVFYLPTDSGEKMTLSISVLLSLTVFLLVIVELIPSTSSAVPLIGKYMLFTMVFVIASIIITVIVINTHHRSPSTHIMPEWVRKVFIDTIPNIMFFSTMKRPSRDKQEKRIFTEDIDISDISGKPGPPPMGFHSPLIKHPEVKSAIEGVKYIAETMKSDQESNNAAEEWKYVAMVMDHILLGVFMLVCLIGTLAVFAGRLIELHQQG
T1 sequence (P09690 24-501): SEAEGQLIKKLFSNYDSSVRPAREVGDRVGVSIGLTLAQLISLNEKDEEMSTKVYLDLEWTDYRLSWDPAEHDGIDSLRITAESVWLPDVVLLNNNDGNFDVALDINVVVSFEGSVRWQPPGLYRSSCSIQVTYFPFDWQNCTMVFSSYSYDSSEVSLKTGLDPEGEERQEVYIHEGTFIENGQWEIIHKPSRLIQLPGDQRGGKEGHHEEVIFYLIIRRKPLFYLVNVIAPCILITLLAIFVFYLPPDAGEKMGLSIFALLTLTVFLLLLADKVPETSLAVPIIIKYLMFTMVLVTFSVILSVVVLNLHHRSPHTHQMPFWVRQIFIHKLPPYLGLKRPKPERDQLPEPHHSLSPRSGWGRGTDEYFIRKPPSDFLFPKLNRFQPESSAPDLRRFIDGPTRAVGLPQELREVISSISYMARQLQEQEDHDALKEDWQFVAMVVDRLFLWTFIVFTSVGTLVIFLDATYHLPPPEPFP
T1 sequence (P02716 25-520): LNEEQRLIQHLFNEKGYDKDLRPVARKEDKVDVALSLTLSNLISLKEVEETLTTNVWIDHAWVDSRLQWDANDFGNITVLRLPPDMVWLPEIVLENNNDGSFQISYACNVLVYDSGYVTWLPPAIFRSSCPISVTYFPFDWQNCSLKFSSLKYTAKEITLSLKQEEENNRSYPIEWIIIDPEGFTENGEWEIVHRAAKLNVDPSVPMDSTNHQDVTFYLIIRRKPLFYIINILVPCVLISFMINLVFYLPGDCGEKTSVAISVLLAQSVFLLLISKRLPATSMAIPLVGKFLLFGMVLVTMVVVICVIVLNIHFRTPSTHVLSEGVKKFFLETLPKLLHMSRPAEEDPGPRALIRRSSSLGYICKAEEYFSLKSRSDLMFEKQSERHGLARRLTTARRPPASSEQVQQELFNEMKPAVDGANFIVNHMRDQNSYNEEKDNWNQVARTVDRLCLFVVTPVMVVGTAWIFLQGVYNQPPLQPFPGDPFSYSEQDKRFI
T1 sequence (P20782 21-493): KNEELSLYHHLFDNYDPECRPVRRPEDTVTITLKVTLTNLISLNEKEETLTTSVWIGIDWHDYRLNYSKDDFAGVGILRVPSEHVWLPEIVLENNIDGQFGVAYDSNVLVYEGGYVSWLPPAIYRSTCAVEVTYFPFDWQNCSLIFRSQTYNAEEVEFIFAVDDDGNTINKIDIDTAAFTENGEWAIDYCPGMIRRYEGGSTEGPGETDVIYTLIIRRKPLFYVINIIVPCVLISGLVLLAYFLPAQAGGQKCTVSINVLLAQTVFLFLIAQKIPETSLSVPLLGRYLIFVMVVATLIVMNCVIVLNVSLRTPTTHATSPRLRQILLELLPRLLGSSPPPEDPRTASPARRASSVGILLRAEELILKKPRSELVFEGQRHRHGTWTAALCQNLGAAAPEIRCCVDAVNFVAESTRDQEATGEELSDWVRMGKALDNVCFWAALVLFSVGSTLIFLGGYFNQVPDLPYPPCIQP
Sequence of L. stagnalis AChBP (P58154 20-229 limits assumed): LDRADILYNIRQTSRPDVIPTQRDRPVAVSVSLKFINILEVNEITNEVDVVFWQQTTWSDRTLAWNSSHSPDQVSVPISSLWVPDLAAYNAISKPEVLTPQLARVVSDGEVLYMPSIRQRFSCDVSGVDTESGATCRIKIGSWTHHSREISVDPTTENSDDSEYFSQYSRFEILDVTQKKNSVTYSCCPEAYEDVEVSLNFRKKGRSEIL

SMILES	inhibition of agonist-evoked current on muscle nAChR (in words) (murine muscle-type nAChR; [1])	reversibility of inhibition of muscle nAChR (murine muscle-type nAChR; 10 μM compound)	IC50 (murine muscle-type nAChR) [µM]	other results
C[C@@H](N)[C@H](O)CCCCCCCC(=O)CCCCCCCCCCCCCC[C@@H](O[C@@H]1O[C@H](CO)[C@H](O)[C@H](O)[C@H]1O)[C@@H](C)N [Compound 1, Rhizochalin]	almost completely	very slowly reversible		
C[C@@H](N)[C@H](O)CCCCCCCCCCCCCCC(=O)CCCCCCC[C@@H](O)[C@@H](C)N [Compound 2, aglycone of rhizochalin]	almost completely	very slowly reversible	2 ± 0.3	
C[C@@H]1C[C@@H]2c3cccc4[nH]c(Br)c(c34)C[C@H]2N(C)C1 [Compound 3, pibocin]	moderate activity		3.7 ± 0.2	
COc1cc(CCN)c2c(c1OC)SSSSS2 [Compound 4, Varacin]	moderate activity		8.7 ± 0.4	
C[N+]1=C2C=C(N)C(=O)c3[nH]cc(c32)CC1 [Compound 5, makaluvamine C]	weaker but still reproducible effect			
Cn1cc2c3c1C(=O)C(N/C=C/c1ccc(O)cc1)=CC3=[N+](C)CC2 [Compound 6, makaluvamine G]	almost completely	fast off-set rate	3.3 ± 0.3	receptor recovery time from the end of compound application (murine muscle-type nAChR; 10 μM compound, muscle nAChR): 5 min
NC1=N/C(=C2/CCNC(=O)c3[nH]ccc32)C(=O)N1 [Compound 7, Debromohymenialdesine]	extremely weak, if any, activity			
C[n+]1ccccc1-c1cccc[n+]1C [Compound 8, 1,1′-Dimethyl-[2,2′]-bipyridyldiium salt]	extremely weak, if any, activity			
O=C1NCCc2cncn21 [Compound 10, 7,8-Dihydroimidazo-[1,5-c]-pyrimidin-5(6H)-one]	extremely weak, if any, activity			
Cn1c(=N)c2[nH]cnc2n(C)c1=O [Compound 11, 1,3-Dimethylisoguaniniium hydrochloride]	extremely weak, if any, activity			
COc1cc2ccnc3c2c(c1OC)NC=C3 [Compound 12, Aaptamine]	moderate activity			
CC/C=C/[C@@H]1CC[C@]2(C[C@H]3CC[C@H]4[C@@H](C(=O)OC(CC)CCCCCCCCCCCCC[C@@H]5O[C@](O)(CCN)[C@H](O)N(CCCN)C5=O)[C@@]5(CCC[C@H](C)O5)NC(=N2)N34)O1 (some centres unmarked) [Compound 13, monanchocidin]	almost completely	very slowly reversible		IC50 (murine muscle-type nAChR; read-out: IC50, current inhibition on muscle nAChR, acetylcholine-evoked current (10 μM acetylcholine), Xenopus oocytes): 4.1 ± 0.6 µM
CN/C(=N\[N+](=O)[O-])NCc1cnc(Cl)s1 [clothianidin]				Kd (L. stagnalis AChBP): 7.3 µM
